The values that follow come from US7994172B2, “[1H-pyrazolo[3, 4-D]pyrimidin-4-yl]-piperidine or -piperazine compounds as serine-theoronine kinase modulators (P70s6k, Atk1 and Atk2) for the treatment of immunological, inflammatory and proliferative diseases” (Exelixis, Inc., priority 2004, dated 2011).

Each structure is given as a SMILES string.

The target in assay [1] is T1, human p70S6 kinase (p70S6K, kinase domain residues 1-421, T412E mutation) (Homo sapiens, UniProt P23443, T412E).
T1 construct: human p70S6 kinase domainresidues 1-421, containing a T412E mutation; made in house
Nature of the assay: p70S6 kinase assay, Luciferase-Coupled Chemiluminescent Kinase assay (LCCA). Type of assay: biochemical. The note with it: 5 μM ATP, 12 nM p70S6K; read-out: p70S6K inhibition IC50. The method, then: (§1) Kinase activity and compound inhibition are investigated using one or more of the three assay formats described below. The ATP concentrations for each assay are selected to be close to the Michaelis-Menten constant (KM) for each individual kinase. Dose-response experiments are performed at 10 different inhibitor concentrations in a 384-well plate format. The data are fitted to four-parameter equation (2) below; where Y is the observed signal, X is the inhibitor concentration, Min is the background signal in the absence of enzyme (0% enzyme activity), Max is the signal in the absence of inhibitor (100% enzyme activity), IC50 is the inhibitor concentration at 50% enzyme inhibition and H represents the empirical Hill's slope to measure the cooperativity. Typically H is close to unity. Y=Min+(Max−Min)/(1+(X/IC50)^H) Equation (2) p70S6 Kinase Assay
Biochemical activity of p70S6 kinase was assessed using a Luciferase-Coupled Chemiluminescent Kinase assay (LCCA) format. Kinase activity was measured as the percent ATP remaining following the kinase reaction. Remaining ATP was detected by luciferase-luciferin-coupled chemiluminescence. Specifically, the reaction was initiated by mixing test compounds, 5 μM ATP, 5 μM RRRLSSLRA peptide and 12 nM p70S6K (baculovirus expressed human p70S6 kinase domainresidues 1-421, containing a T412E mutation) in a 20 uL assay buffer (20 mM Tris-HCL pH 7.5, 10 mM MgCl2, 0.02% Triton X-100, 100 mM DTT, 2 mM MnCl2). The mixture is incubated at ambient temperature for 2 hours after which 20 μL luciferase-luciferin mix is added and the chemiluminescent signal read using a Wallac Victor^2 reader. The luciferase-luciferin mix consists of 50 mM HEPES, pH 7.8, 8.5 μg/mL oxalic acid (pH 7.8), 5 (or 50) mM DTT, 0.4% Triton X-100, 0.25 mg/mL coenzyme A, 63 uM AMP, 28 μg/mL luciferin and 40,000 units/mL luciferase.

Assay [2] has as its target T2, human Akt1 kinase (kinase domain residues R144-A480, activated with PDK1) (Homo sapiens, UniProt P31749).
T2 construct: made in house
As to the kind of experiment: Akt1 kinase assay, Luciferase-Coupled Chemiluminescent Kinase assay (LCCA). The assay is classed as biochemical. The note with it: 1 μM ATP, 1.3 nM Akt1; read-out: Akt-1 inhibition IC50. The method, then: as §1
Biochemical activity of Akt1 kinase was assessed using a Luciferase-Coupled Chemiluminescent Kinase assay (LCCA) format. Kinase activity was measured as the percent ATP remaining following the kinase reaction. Remaining ATP was detected by luciferase-luciferin-coupled chemiluminescence. Specifically, the reaction was initiated by mixing test compounds, 1 μM ATP, 5 μM crosstide peptide and 1.3 nM Akt1 (baculovirus expressed human Akt1 kinase domain residues R144-A480, activated with PDK1) in a 20 uL assay buffer (20 mM Tris-HCL pH 7.5, 10 mM MgCl2, 0.01% Triton X-100, 1 mM DTT, 3 mM MnCl2). The mixture is incubated at ambient temperature for 3 hours after which 20 μL luciferase-luciferin mix is added and the chemiluminescent signal read using a Wallac Victor2 reader. The luciferase-luciferin mix consists of 50 mM HEPES, pH 7.8, 8.5 μg/mL oxalic acid (pH 7.8), 5 (or 50) mM DTT, 0.4% Triton X-100, 0.25 mg/mL coenzyme A, 63 uM AMP, 28 μg/mL luciferin and 40,000 units/mL luciferase.

T1 sequence (P23443 1-421 T412E): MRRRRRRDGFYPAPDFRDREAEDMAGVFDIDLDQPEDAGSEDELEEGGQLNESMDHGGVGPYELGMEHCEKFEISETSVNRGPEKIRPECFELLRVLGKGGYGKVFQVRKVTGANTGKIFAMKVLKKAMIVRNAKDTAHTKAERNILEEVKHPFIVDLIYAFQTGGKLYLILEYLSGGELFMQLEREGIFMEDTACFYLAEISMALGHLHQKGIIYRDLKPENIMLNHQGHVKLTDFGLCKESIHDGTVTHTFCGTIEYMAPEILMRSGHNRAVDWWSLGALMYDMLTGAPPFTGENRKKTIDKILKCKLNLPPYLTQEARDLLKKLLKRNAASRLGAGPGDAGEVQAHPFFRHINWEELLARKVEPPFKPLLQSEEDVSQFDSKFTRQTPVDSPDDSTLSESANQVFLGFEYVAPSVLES
T2 sequence (P31749 144-480): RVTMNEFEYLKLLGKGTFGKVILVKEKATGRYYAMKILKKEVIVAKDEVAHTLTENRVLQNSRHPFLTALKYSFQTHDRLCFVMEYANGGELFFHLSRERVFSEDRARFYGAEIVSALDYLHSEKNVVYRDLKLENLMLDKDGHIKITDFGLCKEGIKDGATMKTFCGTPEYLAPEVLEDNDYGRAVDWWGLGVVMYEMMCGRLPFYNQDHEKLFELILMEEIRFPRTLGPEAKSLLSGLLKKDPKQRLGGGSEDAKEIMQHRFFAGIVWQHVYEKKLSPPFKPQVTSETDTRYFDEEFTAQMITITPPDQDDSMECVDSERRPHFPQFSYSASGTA

Turning to `CCN(CC)CCS(=O)(=O)N(c1ccc(Cl)cc1)C1CCN(c2ncnc3[nH]nc(Br)c23)CC1` [Entry 29, N-[1-(3-bromo-1H-pyrazolo[3,4-d]pyrimidin-4-yl)piperidin-4-yl]-N-(4-chlorophenyl)-2-(diethylamino)ethanesulfonamide], the concentration for half-maximal inhibition (IC50) in assay [1] and in assay [2] was less than 50 nM each time.

Regarding `C=CCCC(=O)N(c1ccc(Cl)cc1)C1CCN(c2ncnc3[nH]nc(Br)c23)CC1` [Entry 35, N-[1-(3-bromo-1H-pyrazolo[3,4-d]pyrimidin-4-yl)piperidin-4-yl]-N-(4-chlorophenyl)pent-4-enamide], the half-maximal inhibitory concentration (IC50) in assay [1] is less than 50 nM; in assay [2], 50 to 500 nM.

Turning to `Clc1ccc(CC2CCN(c3ncnc4[nH]nc(Br)c34)CC2)cc1Cl` [Entry 40, 3-bromo-4-{4-[(3,4-dichlorophenyl)methyl]piperidin-1-yl}-1H-pyrazolo[3,4-d]pyrimidine], the values for the IC50 in assay [1] and in assay [2] were less than 50 nM and greater than 2000 nM, respectively.

Turning to `COC(=O)c1ccc(CN2CCN(c3ncnc4[nH]nc(Br)c34)CC2)cc1` [Entry 42, methyl 4-{[4-(3-bromo-1H-pyrazolo[3,4-d]pyrimidin-4-yl)piperazin-1-yl]methyl}benzoate], the figures for the IC50 in assay [1] and in assay [2] were less than 50 nM and greater than 2000 nM, respectively.

Regarding `CCN(CC)CCCNC(=O)C1(Cc2ccc(Cl)cc2)CCN(c2ncnc3[nH]nc(Br)c23)CC1` [Entry 44, 1-(3-bromo-1H-pyrazolo[3,4-d]pyrimidin-4-yl)-4-[(4-chlorophenyl)methyl]-N-[3-(diethylamino)propyl]piperidine-4-carboxamide], the half-maximal inhibitory concentration (IC50) in assay [1] was less than 50 nM; in assay [2], 50 to 500 nM.

For the molecule `CCN(CC)CCCNC(=O)C1(c2ccc(Cl)cc2)CCN(c2ncnc3[nH]nc(Br)c23)CC1` [Entry 49, 1-(3-bromo-1H-pyrazolo[3,4-d]pyrimidin-4-yl)-4-(4-chlorophenyl)-N-[3-(diethylamino)propyl]piperidine-4-carboxamide], the half-inhibitory concentration (IC50) was less than 50 nM in assay [1] and 500 to 2000 nM in assay [2].

Turning to `Clc1ccc(NC2CCN(c3ncnc4[nH]nc(Br)c34)CC2)cc1` [Entry 59, 1-(3-bromo-1H-pyrazolo[3,4-d]pyrimidin-4-yl)-N-(4-chlorophenyl)piperidin-4-amine], the results for the IC50 in assay [1] and in assay [2] were 50 to 500 nM and greater than 2000 nM, respectively.

For the molecule `O=[N+]([O-])c1cc(CN2CCN(c3ncnc4[nH]nc(Br)c34)CC2)ccc1Oc1ccc(F)cc1` [Entry 65, 3-bromo-4-[4-({4-[(4-fluorophenyl)oxy]-3-nitrophenyl}methyl)piperazin-1-yl]-1H-pyrazolo[3,4-d]pyrimidine], the concentration for half-maximal inhibition (IC50) in assay [1] is 500 to 2000 nM; in assay [2] it was greater than 2000 nM.

Turning to `Clc1cc(CN2CCN(c3ncnc4[nH]nc(Br)c34)CC2)ccc1OCc1ccccc1` [Entry 80, 3-bromo-4-[4-({3-chloro-4-[(phenylmethyl)oxy]phenyl}methyl)piperazin-1-yl]-1H-pyrazolo[3,4-d]pyrimidine], the half-maximal inhibitory concentration (IC50) in assay [1] and in assay [2] was greater than 2000 nM throughout.

Turning to `O=C(NCCCN1CCOCC1)c1ccc(CN2CCN(c3ncnc4[nH]nc(Br)c34)CC2)cc1` [Entry 81, 4-{[4-(3-bromo-1H-pyrazolo[3,4-d]pyrimidin-4-yl)piperazin-1-yl]methyl}-N-(3-morpholin-4-ylpropyl)benzamide], the IC50 in assay [1] and in assay [2] was greater than 2000 nM each time.

In the case of `COCCCNC(=O)c1ccc(CN2CCN(c3ncnc4[nH]nc(Br)c34)CC2)cc1` [Entry 82, 4-{[4-(3-bromo-1H-pyrazolo[3,4-d]pyrimidin-4-yl)piperazin-1-yl]methyl}-N-[3-(methyloxy)propyl]benzamide], the half-maximal inhibitory concentration (IC50) in assay [1] and in assay [2] was greater than 2000 nM in each case.

Consider `CN(C)CCOCC1CN(c2ncnc3[nH]nc(Br)c23)CCN1Cc1ccc(Cl)cc1` (centres unmarked) [Entry 83, 2-[({4-(3-bromo-1H-pyrazolo[3,4-d]pyrimidin-4-yl)-1-[(4-chlorophenyl)methyl]piperazin-2-yl}methyl)oxy]-N,N-dimethylethanamine], for which the half-inhibitory concentration (IC50) in assay [1] and in assay [2] was greater than 2000 nM each time.

`O=[N+]([O-])c1cc(CN2CCN(c3ncnc4[nH]nc(Br)c34)CC2)ccc1Oc1ccc(Cl)cc1` [Entry 84, 3-bromo-4-[4-({4-[(4-chlorophenyl)oxy]-3-nitrophenyl}methyl)piperazin-1-yl]-1H-pyrazolo[3,4-d]pyrimidine]: the 50% inhibitory concentration (IC50) in assay [1] and in assay [2] was greater than 2000 nM in each case.

With `CN(C)CCO[C@@H](c1ccc(Cl)cc1)C1CCN(c2ncnc3[nH]nc(Br)c23)CC1` [Entry 86, 2-{[(R)-[1-(3-bromo-1H-pyrazolo[3,4-d]pyrimidin-4-yl)piperidin-4-yl](4-chlorophenyl)methyl]oxy}-N,N-dimethylethanamine], the IC50 in assay [1] and in assay [2] was less than 50 nM each time.

As for `CN(C)CCNC(=O)N(c1ccc(Br)c(F)c1)C1CCN(c2ncnc3[nH]nc(Br)c23)CC1` [Entry 87, N-(4-bromo-3-fluorophenyl)-N-[1-(3-bromo-1H-pyrazolo[3,4-d]pyrimidin-4-yl)piperidin-4-yl]-N′-[2-(dimethylamino)ethyl]urea], the 50% inhibitory concentration (IC50) in assay [1] and in assay [2] was less than 50 nM each time.

For `CCc1n[nH]c2ncnc(N3CCC([C@@H](OCCN(C)C)c4ccc(Cl)cc4)CC3)c12` [Entry 88, 2-({(R)-(4-chlorophenyl)[1-(3-ethyl-1H-pyrazolo[3,4-d]pyrimidin-4-yl)piperidin-4-yl]methyl}oxy)-N,N-dimethylethanamine], the IC50 in assay [1] and in assay [2] was less than 50 nM each time.

Take `CN(C)CCO[C@H](c1ccc(Cl)cc1)C1CCN(c2ncnc3[nH]nc(Br)c23)CC1` [Entry 89, 2-{[(S)-[1-(3-bromo-1H-pyrazolo[3,4-d]pyrimidin-4-yl)piperidin-4-yl](4-chlorophenyl)methyl]oxy}-N,N-dimethylethanamine]: the IC50 in assay [1] and in assay [2] was less than 50 nM throughout.

Consider `Clc1ccc([C@H](OCCN2CCCC2)C2CCN(c3ncnc4[nH]nc(Br)c34)CC2)cc1` [Entry 90, 3-bromo-4-(4-{(R)-(4-chlorophenyl)[(2-pyrrolidin-1-ylethyl)oxy]methyl}piperidin-1-yl)-1H-pyrazolo[3,4-d]pyrimidine], for which the 50% inhibitory concentration (IC50) in assay [1] and in assay [2] was less than 50 nM in each case.

As for `CN(C)CCCC(O)(c1ccc(Cl)cc1)C1CCN(c2ncnc3[nH]nc(Br)c23)CC1` (centres unmarked) [Entry 91, 1-[1-(3-bromo-1H-pyrazolo[3,4-d]pyrimidin-4-yl)piperidin-4-yl]-1-(4-chlorophenyl)-4-(dimethylamino)butan-1-ol], the IC50 in assay [1] and in assay [2] was less than 50 nM throughout.

On to `CN(C)CCO[C@@H](c1ccc(Cl)c(F)c1)C1CCN(c2ncnc3[nH]nc(Br)c23)CC1` [Entry 92, 2-{[(R)-[1-(3-bromo-1H-pyrazolo[3,4-d]pyrimidin-4-yl)piperidin-4-yl](4-chloro-3-fluorophenyl)methyl]oxy}-N,N-dimethylethanamine], for which the IC50 in assay [1] and in assay [2] was less than 50 nM each time.

With `Clc1ccc([C@H](OCCN2CCCCC2)C2CCN(c3ncnc4[nH]nc(Br)c34)CC2)cc1` [Entry 93, 3-bromo-4-(4-{(R)-(4-chlorophenyl)[(2-piperidin-1-ylethyl)oxy]methyl}piperidin-1-yl)-1H-pyrazolo[3,4-d]pyrimidine], the half-inhibitory concentration (IC50) in assay [1] and in assay [2] was less than 50 nM throughout.

Take `CN(C)CCCC(c1ccc(Cl)cc1)C1CCN(c2ncnc3[nH]nc(Br)c23)CC1` (centres unmarked) [Entry 94, 4-[1-(3-bromo-1H-pyrazolo[3,4-d]pyrimidin-4-yl)piperidin-4-yl]-4-(4-chlorophenyl)-N,N-dimethylbutan-1-amine]: the half-maximal inhibitory concentration (IC50) in assay [1] and in assay [2] was less than 50 nM each time.

Usually IC50 stands for the concentration that inhibits the measured activity by half.
